The results in this text go back to patent publication US20090291938A1 (TAKEDA PHARMACEUTICAL COMPANY LIMITED, priority 2007, published 2009).

Where only a bound is given, the exact number is not on record here.

This test deals with HT29 human colorectal adenocarcinoma cell line. Briefly: cell proliferation assay (Cell Titer-Glo luminescent cell viability assay). The class given is cell-based. The note with it: HT-29, cell proliferative assay, HT29 cells, 72 hr treatment, values given as ranges, read-out: pIC50 (converted). Put shortly:
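Cells grown in DMEM with 10% FBS and exposed to compounds for 72 h. Viability read by CellTiter-Glo luminescence, expressed as percentage of DMSO-treated cells.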
(In general: In ATP-based viability assays light output follows the ATP content of the culture.)
`COc1cc(C(=O)NCc2cccnc2)ccc1Nc1ncc2c(n1)N(C1CCCC1)CCC(=O)N2C` [Compound 70, 4-(9-cyclopentyl-5-methyl-6-oxo-6,7,8,9-tetrahydro-5H-pyrimido[4,5-b][1,4]diazepin-2-ylamino)-3-methoxy-N-(pyridin-3-ylmethyl)benzamide]: the IC50 was 3.16 to 10 nM.
In the case of `COc1cc(C(=O)NC2CCNCC2)ccc1Nc1ncc2c(n1)N(C1CCCC1)CCC(=O)N2C` [Compound 56, 4-(9-cyclopentyl-5-methyl-6-oxo-6,7,8,9-tetrahydro-5H-pyrimido[4,5-b][1,4]diazepin-2-ylamino)-3-methoxy-N-(piperidin-4-yl)benzamide] it was more than 10 nM; in that of `COc1cc(C(=O)NC2CCN(C)CC2)ccc1Nc1ncc2c(n1)N(C1CCC1)CC(C)(C)C(=O)N2C` [Compound 153, 4-(9-cyclobutyl-5,7,7-trimethyl-6-oxo-6,7,8,9-tetrahydro-5H-pyrimido[4,5-b][1,4]diazepin-2-ylamino)-3-methoxy-N-(1-methylpiperidin-4-yl)benzamide], 3.16 to 10 nM; in that of `COc1cc(C(=O)N[C@@H]2CCN(C)C2)ccc1Nc1ncc2c(n1)N(C1CCCC1)CCC(=O)N2C` [Compound 51, (R)-4-(9-cyclopentyl-5-methyl-6-oxo-6,7,8,9-tetrahydro-5H-pyrimido[4,5-b][1,4]diazepin-2-ylamino)-3-methoxy-N-(1-methylpyrrolidin-3-yl)benzamide], more than 10 nM.
Under `COc1cc(C(=O)N[C@H]2CC[C@H](O)CC2)ccc1Nc1ncc2c(n1)N(C1CCCC1)CC(C)(C)C(=O)N2C` [Compound 103, 4-(9-cyclopentyl-5,7,7-trimethyl-6-oxo-6,7,8,9-tetrahydro-5H-pyrimido[4,5-b][1,4]diazepin-2-ylamino)-N-((1R,4R)-4-hydroxycyclohexyl)-3-methoxybenzamide] stands 1 to 2.51 nM; under `COc1cc(C(=O)N[C@H]2CCN(C)C2)ccc1Nc1ncc2c(n1)N(C1CCCC1)CC1(CC1)C(=O)N2C` [Compound 167, (S)-4-(9′-cyclopentyl-5′-methyl-6′-oxo-5′,6′,8′,9′-tetrahydrospiro[cyclopropane-1,7′-pyrimido[4,5-b][1,4]diazepine]-2′-ylamino)-3-methoxy-N-(1-methylpyrrolidin-3-yl)benzamide], 3.16 to 10 nM; under `C=CCC1CN(C2CCCCC2)c2nc(Nc3ccc(C(=O)N[C@@H]4CCCNC4)cc3OC)ncc2N(C)C1=O` (stereo partly drawn) [Compound 191, 4-(7-allyl-9-cyclohexyl-5-methyl-6-oxo-6,7,8,9-tetrahydro-5H-pyrimido[4,5-b][1,4]diazepin-2-ylamino)-3-methoxy-N-((R)-piperidin-3-yl)benzamide], 3.16 to 10 nM.
In the case of `COc1cc(C(=O)N[C@H]2CCC(=O)NC2)ccc1Nc1ncc2c(n1)N(C1CCCC1)CCC(=O)N2C` [Compound 48, (S)-4-(9-cyclopentyl-5-methyl-6-oxo-6,7,8,9-tetrahydro-5H-pyrimido[4,5-b][1,4]diazepin-2-ylamino)-3-methoxy-N-(6-oxopiperidin-3-yl)benzamide] it was more than 10 nM; in that of `COc1cc(C(=O)NC2CCN(C)CC2)ccc1Nc1ncc2c(n1)N(C1CCCC1)CC1(CC1)C(=O)N2C` [Compound 33, 4-(9′-cyclopentyl-5′-methyl-6′-oxo-5′,6′,8′,9′-tetrahydrospiro[cyclopropane-1,7′-pyrimido[4,5-b][1,4]diazepine]-2′-ylamino)-3-methoxy-N-(1-methylpiperidin-4-yl)benzamide], 1 to 2.51 nM; in that of `C=CC[C@H]1CN(C2CCCC2)c2nc(Nc3ccc(C(=O)N[C@@H]4CCNC4)cc3OC)ncc2N(C)C1=O` [Compound 202, 4-((S)-7-allyl-9-cyclopentyl-5-methyl-6-oxo-6,7,8,9-tetrahydro-5H-pyrimido[4,5-b][1,4]diazepin-2-ylamino)-3-methoxy-N-((R)-pyrrolidin-3-yl)benzamide], 1 to 2.51 nM.
For `C=CCC1CN(C2CCCCC2)c2nc(Nc3ccc(C(=O)N[C@H]4CCNC4)cc3OC)ncc2N(C)C1=O` (stereo partly drawn) [Compound 194, 4-(7-allyl-9-cyclohexyl-5-methyl-6-oxo-6,7,8,9-tetrahydro-5H-pyrimido[4,5-b][1,4]diazepin-2-ylamino)-3-methoxy-N-((S)-pyrrolidin-3-yl)benzamide], the IC50 was less than 1 nM.
Under `COc1cc(C(=O)N[C@@H]2CCCNC2)ccc1Nc1ncc2c(n1)N(C1CCCC1)CCC(=O)N2C` [Compound 49, (R)-4-(9-cyclopentyl-5-methyl-6-oxo-6,7,8,9-tetrahydro-5H-pyrimido[4,5-b][1,4]diazepin-2-ylamino)-3-methoxy-N-(piperidin-3-yl)benzamide] stands more than 10 nM; under `C=CC[C@H]1CN(C2CCCC2)c2nc(Nc3ccc(C(=O)N[C@@H]4CCN(C)C4)cc3OC)ncc2N(C)C1=O` [Compound 204, 4-((S)-7-allyl-9-cyclopentyl-5-methyl-6-oxo-6,7,8,9-tetrahydro-5H-pyrimido[4,5-b][1,4]diazepin-2-ylamino)-3-methoxy-N-((R)-1-methylpyrrolidin-3-yl)benzamide], 1 to 2.51 nM.
Under `COc1cc(C(=O)NCCCN2CCCC2=O)ccc1Nc1ncc2c(n1)N(C1CCCC1)CCC(=O)N2C` [Compound 38, 4-(9-cyclopentyl-5-methyl-6-oxo-6,7,8,9-tetrahydro-5H-pyrimido[4,5-b][1,4]diazepin-2-ylamino)-3-methoxy-N-(3-(2-oxopyrrolidin-1-yl)propyl)benzamide] stands 3.16 to 10 nM; under `COc1cc(C(=O)N[C@H]2CCCN(C)C2)ccc1Nc1ncc2c(n1)N(C1CCCC1)CC(C)(C)C(=O)N2C` [Compound 99, (S)-4-(9-cyclopentyl-5,7,7-trimethyl-6-oxo-6,7,8,9-tetrahydro-5H-pyrimido[4,5-b][1,4]diazepin-2-ylamino)-3-methoxy-N-(1-methylpiperidin-3-yl)benzamide], less than 1 nM; under `COc1cc(C(=O)NC2CCN(C(C)C)CC2)ccc1Nc1ncc2c(n1)N(C1CCCC1)CCC(=O)N2C` [Compound 77, 4-(9-cyclopentyl-5-methyl-6-oxo-6,7,8,9-tetrahydro-5H-pyrimido[4,5-b][1,4]diazepin-2-ylamino)-N-(1-isopropylpiperidin-4-yl)-3-methoxybenzamide], more than 10 nM.
Under `COc1cc(C(=O)N[C@H]2CCCN(C)C2)ccc1Nc1ncc2c(n1)N(C1CCCC1)CC1(CC1)C(=O)N2C` [Compound 164, (S)-4-(9′-cyclopentyl-5′-methyl-6′-oxo-5′,6′,8′,9′-tetrahydrospiro-[cyclopropane-1,7′-pyrimido[4,5-b][1,4]diazepine]-2′-ylamino)-3-methoxy-N-(1-methylpiperidin-3-yl)benzamide] stands 1 to 2.51 nM; under `COc1cc(C(=O)N[C@H]2CCNC2)ccc1Nc1ncc2c(n1)N(C1CCCC1)CCC(=O)N2C` [Compound 40, (S)-4-(9-cyclopentyl-5-methyl-6-oxo-6,7,8,9-tetrahydro-5H-pyrimido[4,5-b][1,4]diazepin-2-ylamino)-3-methoxy-N-(pyrrolidin-3yl)benzamide], more than 10 nM; under `COc1cc(C(=O)N[C@@H]2CCN(C)C2)ccc1Nc1ncc2c(n1)N(C1CCCC1)CC(C)(C)C(=O)N2C` [Compound 96, (R)-4-(9-cyclopentyl-5,7,7-trimethyl-6-oxo-6,7,8,9-tetrahydro-5H-pyrimido[4,5-b][1,4]diazepin-2-ylamino)-3-methoxy-N-(1-methylpyrrolidin-3-yl)benzamide], 3.16 to 10 nM.
Take `COc1cc(C(=O)NCCN2CCCC2)ccc1Nc1ncc2c(n1)N(C1CCCC1)CCC(=O)N2C` [Compound 57, 4-(9-cyclopentyl-5-methyl-6-oxo-6,7,8,9-tetrahydro-5H-pyrimido[4,5-b][1,4]diazepin-2-ylamino)-3-methoxy-N-(2-(pyrrolidin-1-yl)ethyl)benzamide]: the IC50 is more than 10 nM.
Under `CCC1(C)CN(C2CCCCC2)c2nc(Nc3ccc(C(=O)N[C@H]4CC[C@H](O)CC4)cc3OC)ncc2N(C)C1=O` (stereo partly drawn) [Compound 141, 4-(9-cyclohexyl-7-ethyl-5,7-dimethyl-6-oxo-6,7,8,9-tetrahydro-5H-pyrimido[4,5-b][1,4]diazepin-2-ylamino)-N-((1R,4R)-4-hydroxycyclohexyl)-3-methoxybenzamide] stands 3.16 to 10 nM.
Under `CC[C@@]1(C)CN(C2CCCCC2)c2nc(Nc3ccc(C(=O)N[C@@H]4CCCNC4)cc3OC)ncc2N(C)C1=O` [Compound 148, 4-((S)-9-cyclohexyl-7-ethyl-5,7-dimethyl-6-oxo-6,7,8,9-tetrahydro-5H-pyrimido[4,5-b][1,4]diazepin-2-ylamino)-3-methoxy-N-((R)-piperidin-3-yl)benzamide] stands 3.16 to 10 nM; under `COc1cc(C(=O)NC2CCOCC2)ccc1Nc1ncc2c(n1)N(C1CCCC1)CC(C)(C)C(=O)N2C` [Compound 94, 4-(9-cyclopentyl-5,7,7-trimethyl-6-oxo-6,7,8,9-tetrahydro-5H-pyrimido[4,5-b][1,4]diazepin-2-ylamino)-3-methoxy-N-(tetrahydro-2H-pyran-4-yl)benzamide], 1 to 2.51 nM; under `COc1cc(C(=O)NN2CCN(C)CC2)ccc1Nc1ncc2c(n1)N(C1CCCCC1)CC(C)(C)C(=O)N2C` [Compound 112, 4-(9-cyclohexyl-5,7,7-trimethyl-6-oxo-6,7,8,9-tetrahydro-5H-pyrimido[4,5-b][1,4]diazepin-2-ylamino)-3-methoxy-N-(4-methylpiperazin-1-yl)benzamide], 1 to 2.51 nM.
In the case of `COc1cc(C(=O)N[C@@H]2CCCN(C)C2)ccc1Nc1ncc2c(n1)N(C1CCCC1)CC(C)(C)C(=O)N2C` [Compound 98, (R)-4-(9-cyclopentyl-5,7,7-trimethyl-6-oxo-6,7,8,9-tetrahydro-5H-pyrimido[4,5-b][1,4]diazepin-2-ylamino)-3-methoxy-N-(1-methylpiperidin-3-yl)benzamide] it was 1 to 2.51 nM; in that of `C=CC[C@H]1CN(C2CCCC2)c2nc(Nc3ccc(C(=O)NC4CN(C)C4)cc3OC)ncc2N(C)C1=O` [Compound 196, (S)-4-(7-allyl-9-cyclopentyl-5-methyl-6-oxo-6,7,8,9-tetrahydro-5H-pyrimido[4,5-b][1,4]diazepin-2-ylamino)-3-methoxy-N-(1-methylazetidin-3-yl)benzamide], less than 1 nM.
